According to the supplement of paper PMC4862054:
Where “and” joins values, the source holds several entries; their conditions need not be identical. Equal entries are not always repeated.

What was measured:
Conditions in all cases: incubation time: 72 h
CAL-120 = test: drug sensitivity score (DSS), CellTox Green (DSS (AUC-based score)); higher = stronger drug effect (viability inhibition or cytotoxicity); extreme values may be limits of the assay
Outline: (§1)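 Breast cancer cell lines (20 µl suspension) were seeded into 384-well plates holding compound at 5 concentrations in 10-fold steps over a compound-specific 10,000-fold range, then incubated 72 h. CellTox Green fluorescence (485/520 nm) was read first, then CellTiter-Glo luminescence after 10 min at room temperature. Each plate was normalised to 0.1 % DMSO and a positive kill control. The drug sensitivity score was calculated from the area under the fitted dose-response curve.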

HCC1937 = test: as above
Outline: as §1

CAL-51 [1] = test: as above
Outline: as §1

MDA-MB-468 = test: as above
Outline: as §1

MDA-MB-436 = test: as above
Outline: as §1

Hs578T = test: as above
Outline: as §1

CAL-148 = test: as above
Outline: as §1

DU-4475 [2] = test: as above
Outline: as §1

BT-474 = test: as above
Outline: as §1

CAL-85-1 = test: as above
Outline: as §1

MFM-223 = test: as above
Outline: as §1

MCF-10A = test: as above
Outline: as §1

HCC1599 = test: as above
Outline: as §1

BT-549 = test: as above
Outline: as §1

HCC1143 = test: as above
Outline: as §1

HDQ-P1 [3] = test: as above
Outline: as §1

MDA-MB-453 [4] = test: as above
Outline: as §1

MDA-MB-231 = test: as above
Outline: as §1

CAL-51 [5] = test: normalised viability (% of control), CellTiter-Blue; higher = more viable cells (about 100 = DMSO control)
Outline: (§2)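 384-well plates were pre-loaded with compound in 5 µl medium before 20 µl of breast cancer cell suspension was seeded. Following 72 h incubation, 2.5 µl CellTiter-Blue reagent was added for 2 h at 37 °C. Fluorescence was read at 560/590 nm and plates were normalised to vehicle (100) and a positive kill control (0), checked by Z'-factor. Normalised viability is reported at a single listed concentration of the series.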

DU-4475 [6] = test: as above
Outline: as §2

HDQ-P1 [7] = test: as above
Outline: as §2

CAL-51 [8] = test: drug sensitivity score (DSS), CellTiter-Blue viability (DSS (AUC-based score)); higher = stronger viability inhibition; extreme values may be limits of the assay
Method: (§3)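 DSRT with the CellTiter-Blue (resazurin reduction) viability readout, fluorescence 560/590 nm, 72 h incubation. Plates were normalised to DMSO and benzethonium chloride controls. DSS is computed from the area under the fitted dose-response curve (5 or 9 concentrations).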

MDA-MB-453 [9] = test: as above
Method: as §3

SMILES	drug sensitivity score (CAL-120)	drug sensitivity score (HCC1937)	drug sensitivity score (CAL-51 [1])	drug sensitivity score (MDA-MB-468)	drug sensitivity score (MDA-MB-436)	drug sensitivity score (Hs578T)	drug sensitivity score (CAL-148)	drug sensitivity score (DU-4475 [2])	drug sensitivity score (BT-474)	drug sensitivity score (CAL-85-1)	drug sensitivity score (MFM-223)	drug sensitivity score (MCF-10A)	drug sensitivity score (HCC1599)	drug sensitivity score (BT-549)	drug sensitivity score (HCC1143)	drug sensitivity score (HDQ-P1 [3])	drug sensitivity score (MDA-MB-453 [4])	drug sensitivity score (MDA-MB-231)	normalised viability (CAL-51 [5]; 29.7 nM) [%]	normalised viability (CAL-51 [5]; 300 nM) [%]	normalised viability (DU-4475 [6]; 29.7 nM) [%]	normalised viability (DU-4475 [6]; 300 nM) [%]	normalised viability (HDQ-P1 [7]; 29.7 nM) [%]	normalised viability (HDQ-P1 [7]; 300 nM) [%]	drug sensitivity score (CAL-51 [8])	drug sensitivity score (MDA-MB-453 [9])
C=CC(=O)N1CCC[C@@H](n2nc(-c3ccc(Oc4ccccc4)cc3)c3c(N)ncnc32)C1 [Ibrutinib]	0	0	0.377	0	0	0	0	0	2.25	4.71	0	0	0	0	0	0.282	1.03	0	–	–	–	–	–	–	–	–
CCN(CC)CCCC(C)Nc1c2ccc(Cl)cc2nc2ccc(OC)cc12 (stereo not given) [Mepacrine]	0	0	0	0.235	0	–	0	0	0	0	0	0	0	0	0	0	0	5	86.1	104	88.3	80.9	117	109	3.49 and 2.1	6.26 and 3.66
C=CCc1cccc(/C=N/NC(=O)CN2CCN(Cc3ccccc3)CC2)c1O [PAC-1]	0	0	4.72	0	0	0	0	0	1	0	0	0	0	8.49	0	0	0	0	–	–	–	–	–	–	–	–
CC[C@H](C)C(=O)O[C@H]1C[C@H](O)C=C2C=C[C@H](C)[C@H](CC[C@@H](O)C[C@@H](O)CC(=O)O)[C@H]21 [Pravastatin]	0	0	5.33	2.44	32.8	0	0	0	0	0	0	2.17	0	0.618	0	0	0	4.52	–	–	–	–	–	–	–	–
Cc1cnc(NC(=O)Nc2cc(Br)c(C)cc2OC[C@@H]2CNCCO2)cn1 [Rabusertib]	0	0	0	0	0	0	0.673	0	0	0	0	0	0	0	0	0	0	0	–	–	–	–	–	–	–	–
CNC(=O)c1cc(Oc2ccc(NC(=O)Nc3cc(C(C)(C)C)nn3-c3ccc4ncccc4c3)c(F)c2)ccn1 [Rebastinib]	0	0	0	0	0	0	0	0	0	2.09	0	0	0	0	0	4.01	0	0	–	–	–	–	–	–	–	–
CC(=O)Nc1cccc(-n2c(=O)n(C3CC3)c(=O)c3c(Nc4ccc(I)cc4F)n(C)c(=O)c(C)c32)c1 [Trametinib]	1.74	0	0	0	0	0	0	7.36	0	7.34	0	4.18	0	0	0	0	0	12	–	–	–	–	–	–	–	–
C1CN1c1nc(N2CC2)nc(N2CC2)n1 [Triethylenemelamine]	–	–	–	–	–	–	–	–	–	–	–	–	–	–	–	–	–	–	–	105	–	97.2	–	105	0	1.28
COc1cc2c(NC3CCN(C(C)C)CC3)nc(C3CCCCC3)nc2cc1OCCCN1CCCC1 [UNC0638]	6.94	7.61	9.03	7.09	4.24	–	6.35	0	7.51	6.93	3.4	7.41	1.89	8.31	0	1.42	6.8	9.02	–	–	–	–	–	–	–	–
